Laboratory results as given in patent US20260055079A1, “PHTHALAZINONE COMPOUNDS AS PARP7 INHIBITORS” (AZKARRA THERAPEUTICS, INC., priority 2022, published 2026).
Read-outs that look alike come from different tables or passages of the source.

Experiments:
[1] = tested on: HARA (human lung squamous cell carcinoma) cells; experiment: Cell proliferation assay (CellTiter-Glo), HARA; assay type: cell-based; conditions: read-out: HARA GI50
[2] = tested on: NCI-H1373 (human lung adenocarcinoma) cells; experiment: Cell proliferation assay (CellTiter-Glo), NCI-H1373; assay type: cell-based; conditions: read-out: NCI-H1373 GI50
[3] = target: His-GST-PARP7 (Homo sapiens (Human), UniProt Q7Z3E1); experiment: PARP7 biochemical assay; conditions: read-out: PARP7 IC50
His-GST-PARP7, sequence (Q7Z3E1 whole entry): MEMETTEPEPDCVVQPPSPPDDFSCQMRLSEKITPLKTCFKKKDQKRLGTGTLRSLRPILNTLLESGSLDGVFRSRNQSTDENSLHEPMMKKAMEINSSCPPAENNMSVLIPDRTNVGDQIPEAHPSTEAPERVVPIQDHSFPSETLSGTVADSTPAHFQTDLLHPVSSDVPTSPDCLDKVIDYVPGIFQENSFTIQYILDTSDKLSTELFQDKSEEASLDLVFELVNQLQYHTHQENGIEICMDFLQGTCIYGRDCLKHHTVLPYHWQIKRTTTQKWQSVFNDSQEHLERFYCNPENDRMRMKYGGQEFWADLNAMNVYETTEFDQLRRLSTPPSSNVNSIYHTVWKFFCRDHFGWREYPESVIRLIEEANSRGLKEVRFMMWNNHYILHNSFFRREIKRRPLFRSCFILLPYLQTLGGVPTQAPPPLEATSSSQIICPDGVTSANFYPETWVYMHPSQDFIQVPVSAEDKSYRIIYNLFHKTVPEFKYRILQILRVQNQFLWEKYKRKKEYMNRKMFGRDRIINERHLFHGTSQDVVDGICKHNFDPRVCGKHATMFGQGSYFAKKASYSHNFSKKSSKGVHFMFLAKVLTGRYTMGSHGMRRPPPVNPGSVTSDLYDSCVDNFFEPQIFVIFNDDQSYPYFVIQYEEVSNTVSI

[4] = tested on: CT26 (mouse colon adenocarcinoma) cells; experiment: Cell proliferation assay (CellTiter-Glo), CT26; assay type: cell-based; conditions: 6 days
[5] = target: PARP2 (Homo sapiens (Human), UniProt Q9UGN5); experiment: PARP2 biochemical assay
PARP2, sequence (Q9UGN5 whole entry): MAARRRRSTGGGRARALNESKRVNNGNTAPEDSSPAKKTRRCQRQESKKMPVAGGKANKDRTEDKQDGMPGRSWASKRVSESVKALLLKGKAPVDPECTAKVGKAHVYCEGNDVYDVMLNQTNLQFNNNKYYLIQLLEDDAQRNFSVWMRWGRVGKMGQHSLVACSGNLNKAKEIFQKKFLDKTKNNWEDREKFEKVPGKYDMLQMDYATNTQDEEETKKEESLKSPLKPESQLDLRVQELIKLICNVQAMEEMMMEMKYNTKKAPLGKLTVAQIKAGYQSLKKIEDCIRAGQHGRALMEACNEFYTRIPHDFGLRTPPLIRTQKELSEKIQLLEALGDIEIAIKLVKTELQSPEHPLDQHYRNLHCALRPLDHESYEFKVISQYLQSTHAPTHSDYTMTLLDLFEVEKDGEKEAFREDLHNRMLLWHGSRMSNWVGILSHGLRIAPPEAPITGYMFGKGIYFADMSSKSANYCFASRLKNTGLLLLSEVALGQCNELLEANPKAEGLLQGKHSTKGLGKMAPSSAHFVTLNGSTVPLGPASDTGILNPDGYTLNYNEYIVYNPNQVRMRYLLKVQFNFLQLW

[6] = Homo sapiens, 144 h, 6 days, CellTiter-Glo
[7] = Homo sapiens, NCI-H1373, 144 h, 6 days, CellTiter-Glo

Row | Molecule | IC50 [3] | GI50 [1, 6] | GI50 [2, 7] | GI50 ([4]; Mus musculus, CT26, 144 h) | IC50 ([5]; read-out: PARP2 IC50) | also measured
1 | 6-Cyclobutoxy-4-(4-fluoro-3-(2-(hydroxymethyl)-4,5,6,7-tetrahydropyrazolo[1,5-a]pyrazine-5-carbonyl)benzyl)phthalazin-1(2H)-one [Example 168] | 100 to 500 nM |  |  |  |  | GI50 ([1]; 6 days, CellTiter-Glo): > 5000 nM; GI50 ([2]; 6 days, CellTiter-Glo): > 5000 nM; GI50 [4]: > 5000 nM
2 | N#Cc1ccc(N2CCN(C(=O)c3cc(Cc4n[nH]c(=O)c5ccc(OC6CCC6)cc45)ccc3F)[C@@H]3C[C@@H]32)nc1 (stereo in doubt) [Example 150, 6-(5-(5-((7-cyclobutoxy-4-oxo-3,4-dihydrophthalazin-1-yl)methyl)-2-fluorobenzoyl)-2,5-diazabicyclo[4.1.0]heptan-2-yl)nicotinonitrile] | < 50 nM | 1000 to 5000 nM | 100 to 1000 nM | 1000 to 5000 nM |  | 
3 | C#CCOc1ccc2c(=O)[nH]nc(Cc3ccc(F)c(C(=O)N4CCN(c5ccc(C#N)cn5)CC4)c3)c2c1 [Example 3, 6-(4-(2-fluoro-5-((4-oxo-7-(prop-2-yn-1-yloxy)-3,4-dihydrophthalazin-1-yl)methyl)benzoyl)piperazin-1-yl)nicotinonitrile] | < 50 nM |  |  |  | < 50 nM | GI50 ([1]; Homo sapiens, 144 h): 1000 to 5000 nM; GI50 ([2]; Homo sapiens, NCI-H1373, 144 h): < 100 nM
4 | COc1ccc2c(=O)[nH]nc(Cc3cccc(C(=O)N4CCN(c5ccc(C#N)cn5)CC4)c3)c2c1 [Example 4, 6-(4-(3-((7-Methoxy-4-oxo-3,4-dihydrophthalazin-1-yl)methyl)benzoyl)piperazin-1-yl)nicotinonitrile] | < 50 nM | 1000 to 5000 nM | < 100 nM | 100 to 1000 nM |  | 
5 | N#Cc1ccc(N2CCN(C(=O)c3cc(Cc4n[nH]c(=O)c5ccc(OC6CC6)cc45)ccc3F)CC2)nc1 [Example 13, 6-(4-(5-((7-Cyclopropoxy-4-oxo-3,4-dihydrophthalazin-1-yl)methyl)-2-fluorobenzoyl)piperazin-1-yl)nicotinonitrile] | < 50 nM |  |  |  |  | GI50 ([2]; Homo sapiens, NCI-H1373, 144 h): 100 to 1000 nM; IC50 [5]: 100 to 500 nM
6 | N#Cc1ccc(N2CCN(C(=O)c3cc(Cc4n[nH]c(=O)c5ccc(OC6CCC6)cc45)ccc3F)CC2)nc1 [Example 14, 6-(4-(5-((7-Cyclobutoxy-4-oxo-3,4-dihydrophthalazin-1-yl)methyl)-2-fluorobenzoyl)piperazin-1-yl)nicotinonitrile] | < 50 nM |  |  |  |  | GI50 ([1]; Homo sapiens, 144 h): 1000 to 5000 nM; GI50 ([2]; Homo sapiens, NCI-H1373, 144 h): < 100 nM; IC50 [5]: 500 to 2000 nM
7 | CNc1ccc2c(=O)[nH]nc(Cc3ccc(F)c(C(=O)N4CCN(c5ccc(C#N)cn5)CC4)c3)c2c1 [Example 16, 6-(4-(2-fluoro-5-((7-(methylamino)-4-oxo-3,4-dihydrophthalazin-1-yl)methyl)benzoyl)piperazin-1-yl)nicotinonitrile] | < 50 nM |  |  |  | < 50 nM | GI50 ([2]; Homo sapiens, NCI-H1373, 144 h): 1000 to 5000 nM
8 | N#Cc1ccc(N2CCN(C(=O)c3cc(Cc4n[nH]c(=O)c5ccc(NCC6CC6)cc45)ccc3F)CC2)nc1 [Example 20, 6-(4-(5-((7-(cyclopropylmethylamino)-4-oxo-3,4-dihydrophthalazin-1-yl)methyl)-2-fluorobenzoyl)piperazin-1-yl)nicotinonitrile] | < 50 nM |  | 100 to 1000 nM |  | < 50 nM | 
9 | N#Cc1ccc(N2CCN(C(=O)c3cc(Cc4n[nH]c(=O)c5ccc(N6CC7(CC(O)C7)C6)cc45)ccc3F)CC2)nc1 [Example 23, 6-(4-(2-Fluoro-5-((7-(6-hydroxy-2-azaspiro[3.3]heptan-2-yl)-4-oxo-3,4-dihydrophthalazin-1-yl)methyl)benzoyl)piperazin-1-yl)nicotinonitrile] | < 50 nM |  | > 5000 nM |  | 500 to 2000 nM | 
10 | N#Cc1ccc(N2CCN(C(=O)c3cc(Cc4n[nH]c(=O)c5ccc(OC(F)(F)F)cc45)ccc3F)CC2)nc1 [Example 30, 6-(4-(2-fluoro-5-((4-oxo-7-(trifluoromethoxy)-3,4-dihydrophthalazin-1-yl)methyl)benzoyl)piperazin-1-yl)nicotinonitrile] | < 50 nM |  | 100 to 1000 nM |  | 100 to 500 nM | 
11 | N#Cc1ccc(N2CCN(C(=O)c3cc(Cc4n[nH]c(=O)c5ccc(N6CC7(CCC7)C6)cc45)ccc3F)CC2)nc1 [Example 31, 6-(4-(2-Fluoro-5-((4-oxo-7-(2-azaspiro[3.3]heptan-2-yl)-3,4-dihydrophthalazin-1-yl)methyl)benzoyl)piperazin-1-yl)nicotinonitrile] | < 50 nM |  | 100 to 1000 nM |  | > 2000 nM | 
12 | N#Cc1ccc(N2CCN(C(=O)c3cc(Cc4n[nH]c(=O)c5ccc(N6CC(C(F)(F)F)C6)cc45)ccc3F)CC2)nc1 [Example 34, 6-(4-(2-Fluoro-5-((4-oxo-7-(3-(trifluoromethyl)azetidin-1-yl)-3,4-dihydrophthalazin-1-yl)methyl)benzoyl)piperazin-1-yl)nicotinonitrile] | < 50 nM |  | 100 to 1000 nM |  | 500 to 2000 nM | 
13 | CC(F)(F)c1ccc2c(=O)[nH]nc(Cc3ccc(F)c(C(=O)N4CCN(c5ccc(C#N)cn5)CC4)c3)c2c1 [Example 36, 6-(4-(5-((7-(1,1-Difluoroethyl)-4-oxo-3,4-dihydrophthalazin-1-yl)methyl)-2-fluorobenzoyl)piperazin-1-yl)nicotinonitrile] | 50 to 100 nM |  | 100 to 1000 nM |  | < 50 nM | 
14 | N#Cc1ccc(N2CCN(C(=O)c3cc(Cc4n[nH]c(=O)c5ccc(OC6CC(F)(F)C6)cc45)ccc3F)CC2)nc1 [Example 51, 6-(4-(5-((7-(3,3-Difluorocyclobutoxy)-4-oxo-3,4-dihydrophthalazin-1-yl)methyl)-2-fluorobenzoyl)piperazin-1-yl)nicotinonitrile] | < 50 nM | > 5000 nM | < 100 nM | 1000 to 5000 nM |  | 
15 | N#Cc1ccc(N2CCN(C(=O)c3cc(Cc4n[nH]c(=O)c5ccc(S(=O)(=O)C6CCC6)cc45)ccc3F)CC2)nc1 [Example 53, 6-(4-(5-((7-(cyclobutylsulfonyl)-4-oxo-3,4-dihydrophthalazin-1-yl)methyl)-2-fluorobenzoyl)piperazin-1-yl)nicotinonitrile] | 100 to 500 nM | > 5000 nM | > 5000 nM | > 5000 nM |  | 
16 | CC#Cc1ccc2c(=O)[nH]nc(Cc3cc(F)c(F)c(C(=O)N4CCN(c5ccc(C#N)cn5)CC4)c3)c2c1 [Example 74, 6-(4-(2,3-Difluoro-5-((4-oxo-7-(prop-1-ynyl)-3,4-dihydrophthalazin-1-yl)methyl)benzoyl)piperazin-1-yl)nicotinonitrile] | < 50 nM |  | 100 to 1000 nM |  | 50 to 100 nM | 
17 | CC#Cc1ccc2c(=O)[nH]nc(Cc3ccc(F)c(C(=O)N4CCN(c5ccc(C#N)cn5)CC4)c3)c2c1OC [Example 81, 6-(4-(2-Fluoro-5-((8-methoxy-4-oxo-7-(prop-1-yn-1-yl)-3,4-dihydrophthalazin-1-yl)methyl)benzoyl)piperazin-1-yl)nicotinonitrile] | < 50 nM | 100 to 1000 nM | < 100 nM | < 100 nM |  | 
18 | CC#Cc1cc(Cl)c2c(=O)[nH]nc(Cc3ccc(F)c(C(=O)N4CCN(c5ccc(C#N)cn5)CC4)c3)c2c1 [Example 85, 6-(4-(5-((5-chloro-4-oxo-7-(prop-1-yn-1-yl)-3,4-dihydrophthalazin-1-yl)methyl)-2-fluorobenzoyl)piperazin-1-yl)nicotinonitrile] | 100 to 500 nM |  | < 100 nM |  | 50 to 100 nM | 
19 | COc1cc2c(Cc3ccc(F)c(C(=O)N4CCN(c5ccc(C#N)cn5)CC4)c3)n[nH]c(=O)c2cn1 [Example 91, 6-(4-(2-fluoro-5-((7-methoxy-4-oxo-3,4-dihydropyrido[4,3-d]pyridazin-1-yl)methyl)benzoyl)piperazin-1-yl)nicotinonitrile] | < 50 nM | > 5000 nM | 1000 to 5000 nM | > 5000 nM |  | 
20 | N#Cc1ccc(N2CCN(C(=O)c3cc(Cc4n[nH]c(=O)c5c(C(F)(F)F)cc(OC6CCC6)cc45)ccc3F)CC2)nc1 [Example 93, 6-(4-(5-((7-Cyclobutoxy-4-oxo-5-(trifluoromethyl)-3,4-dihydrophthalazin-1-yl)methyl)-2-fluorobenzoyl)piperazin-1-yl)nicotinonitrile] | < 50 nM | 1000 to 5000 nM | < 100 nM | 1000 to 5000 nM |  | 
21 | N#Cc1ccc(N2CCCN(C(=O)c3cc(Cc4n[nH]c(=O)c5ccc(OC6CCC6)cc45)ccc3F)CC2)nc1 [Example 94, 6-(4-(5-((7-Cyclobutoxy-4-oxo-3,4-dihydrophthalazin-1-yl)methyl)-2-fluorobenzoyl)-1,4-diazepan-1-yl)nicotinonitrile] | < 50 nM | 1000 to 5000 nM | < 100 nM | 1000 to 5000 nM |  | 
22 | COc1ccnc(N2CCN(C(=O)c3cc(Cc4n[nH]c(=O)c5ccc(OC6CCC6)cc45)ccc3F)CC2)c1 [Example 128, 6-cyclobutoxy-4-(4-fluoro-3-(4-(4-methoxypyridin-2-yl)piperazine-1-carbonyl)benzyl)phthalazin-1(2H)-one] | < 50 nM | 1000 to 5000 nM | 100 to 1000 nM | 1000 to 5000 nM |  | 
23 | CC#Cc1ccc2c(=O)[nH]nc(C(C)N(C)CCC(=O)N3CCN(c4ncc(C(F)(F)F)cn4)CC3)c2c1 (stereo not drawn) [Example 193, 4-(1-(methyl(3-oxo-3-(4-(5-(trifluoromethyl)pyrimidin-2-yl)piperazin-1-yl)propyl)amino)ethyl)-6-(prop-1-yn-1-yl)phthalazin-1(2H)-one] | < 50 nM |  | 100 to 1000 nM |  | > 2000 nM | 
